Values of other authors, collected in publication PMC9851200, “Multiparameter phenotypic screening for endogenous TFEB and TFE3 translocation identifies novel chemical series modulating lysosome function” (Autophagy, 2022).

Experiments:
Design in all cases: method as in original PKIS2 published data
[1] = target: kinases (KINOMEscan panel) (Homo sapiens, UniProt P07948); details: Published KINOMEscan; ref original PKIS2 published data; cited from earlier work
[2] = target: kinases (KINOMEscan panel) (Homo sapiens, UniProt P12931); details: SRC; Published KINOMEscan; ref original PKIS2 published data; cited from earlier work
[3] = target: kinases (KINOMEscan panel) (Homo sapiens, UniProt Q00526); details: CDK3; Published KINOMEscan; ref original PKIS2 published data; cited from earlier work
[4] = target: T1, kinases (KINOMEscan panel) (Homo sapiens, UniProt Q12851); details: kinase MAP4K2; Published KINOMEscan; ref original PKIS2 published data; cited from earlier work
T1 sequence (Q12851 1-820): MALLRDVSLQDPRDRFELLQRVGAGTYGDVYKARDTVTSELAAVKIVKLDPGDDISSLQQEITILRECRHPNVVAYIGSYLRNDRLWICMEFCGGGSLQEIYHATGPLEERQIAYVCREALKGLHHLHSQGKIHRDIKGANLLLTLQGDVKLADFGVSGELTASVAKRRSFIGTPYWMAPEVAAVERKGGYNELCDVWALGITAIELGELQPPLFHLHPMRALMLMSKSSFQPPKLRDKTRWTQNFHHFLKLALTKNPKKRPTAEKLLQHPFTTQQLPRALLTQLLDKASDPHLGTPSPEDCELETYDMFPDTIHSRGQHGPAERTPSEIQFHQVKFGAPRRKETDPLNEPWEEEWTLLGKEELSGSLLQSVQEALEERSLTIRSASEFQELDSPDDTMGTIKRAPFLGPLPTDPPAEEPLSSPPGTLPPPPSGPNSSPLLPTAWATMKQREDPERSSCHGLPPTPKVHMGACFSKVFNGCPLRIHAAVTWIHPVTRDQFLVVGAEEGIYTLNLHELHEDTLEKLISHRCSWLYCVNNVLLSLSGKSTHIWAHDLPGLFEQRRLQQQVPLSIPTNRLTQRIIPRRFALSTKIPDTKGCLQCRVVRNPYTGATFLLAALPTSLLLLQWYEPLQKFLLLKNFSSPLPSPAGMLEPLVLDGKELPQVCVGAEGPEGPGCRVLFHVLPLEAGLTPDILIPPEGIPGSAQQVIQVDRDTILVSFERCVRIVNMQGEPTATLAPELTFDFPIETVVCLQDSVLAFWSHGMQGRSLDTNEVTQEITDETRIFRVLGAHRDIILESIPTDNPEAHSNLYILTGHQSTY

[5] = target: T2, kinases (KINOMEscan panel) (Homo sapiens, UniProt Q8NE63); details: kinase HIPK4; Published KINOMEscan; ref original PKIS2 published data; cited from earlier work
T2 sequence (Q8NE63 1-616): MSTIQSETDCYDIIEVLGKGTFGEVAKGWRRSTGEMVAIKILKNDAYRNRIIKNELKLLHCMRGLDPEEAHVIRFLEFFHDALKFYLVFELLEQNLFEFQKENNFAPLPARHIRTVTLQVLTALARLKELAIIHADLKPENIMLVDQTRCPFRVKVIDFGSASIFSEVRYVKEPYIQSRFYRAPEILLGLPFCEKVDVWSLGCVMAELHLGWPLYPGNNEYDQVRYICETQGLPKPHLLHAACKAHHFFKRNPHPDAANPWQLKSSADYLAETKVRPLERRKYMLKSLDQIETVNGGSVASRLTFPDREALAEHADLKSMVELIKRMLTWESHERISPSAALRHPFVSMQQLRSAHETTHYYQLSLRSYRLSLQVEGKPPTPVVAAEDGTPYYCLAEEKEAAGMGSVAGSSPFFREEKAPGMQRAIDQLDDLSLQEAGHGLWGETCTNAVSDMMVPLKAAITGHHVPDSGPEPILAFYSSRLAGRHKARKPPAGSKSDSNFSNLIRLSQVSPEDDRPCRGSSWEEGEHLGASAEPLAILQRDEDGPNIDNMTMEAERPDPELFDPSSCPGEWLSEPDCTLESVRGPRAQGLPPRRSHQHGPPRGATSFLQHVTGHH

[6] = target: kinases (KINOMEscan panel) (Homo sapiens, UniProt P06213); details: kinase INSR; Published KINOMEscan; ref original PKIS2 published data; cited from earlier work
[7] = target: T3, kinases (KINOMEscan panel) (Homo sapiens, UniProt Q13546); details: kinase RIPK1; Published KINOMEscan; ref original PKIS2 published data; cited from earlier work
T3 sequence (Q13546 1-671): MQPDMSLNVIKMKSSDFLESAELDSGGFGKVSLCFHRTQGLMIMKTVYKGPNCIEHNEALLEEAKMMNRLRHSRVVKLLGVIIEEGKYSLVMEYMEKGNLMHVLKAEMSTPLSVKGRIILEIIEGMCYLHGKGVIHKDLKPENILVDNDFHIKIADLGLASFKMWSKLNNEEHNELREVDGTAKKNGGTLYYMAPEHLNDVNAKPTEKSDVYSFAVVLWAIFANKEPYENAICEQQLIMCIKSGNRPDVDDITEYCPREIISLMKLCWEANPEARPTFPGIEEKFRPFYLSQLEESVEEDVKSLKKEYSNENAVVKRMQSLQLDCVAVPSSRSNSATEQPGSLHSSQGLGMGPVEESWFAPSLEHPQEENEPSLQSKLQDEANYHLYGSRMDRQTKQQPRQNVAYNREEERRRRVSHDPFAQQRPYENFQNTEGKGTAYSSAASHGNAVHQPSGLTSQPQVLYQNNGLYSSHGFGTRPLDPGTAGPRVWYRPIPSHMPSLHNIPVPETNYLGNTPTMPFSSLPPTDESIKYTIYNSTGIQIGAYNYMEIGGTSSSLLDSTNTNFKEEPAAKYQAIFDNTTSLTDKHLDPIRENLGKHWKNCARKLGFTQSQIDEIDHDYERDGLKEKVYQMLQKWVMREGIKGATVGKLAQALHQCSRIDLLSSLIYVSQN

[8] = target: kinases (KINOMEscan panel) (Homo sapiens, UniProt P57059); details: kinase SIK1; Published KINOMEscan; ref original PKIS2 published data; cited from earlier work
[9] = target: kinases (KINOMEscan panel) (Homo sapiens, UniProt Q99755); details: Published KINOMEscan; ref original PKIS2 published data; cited from earlier work
Chain of kinases (KINOMEscan panel) (Homo sapiens, UniProt Q99755) (Q99755 whole entry): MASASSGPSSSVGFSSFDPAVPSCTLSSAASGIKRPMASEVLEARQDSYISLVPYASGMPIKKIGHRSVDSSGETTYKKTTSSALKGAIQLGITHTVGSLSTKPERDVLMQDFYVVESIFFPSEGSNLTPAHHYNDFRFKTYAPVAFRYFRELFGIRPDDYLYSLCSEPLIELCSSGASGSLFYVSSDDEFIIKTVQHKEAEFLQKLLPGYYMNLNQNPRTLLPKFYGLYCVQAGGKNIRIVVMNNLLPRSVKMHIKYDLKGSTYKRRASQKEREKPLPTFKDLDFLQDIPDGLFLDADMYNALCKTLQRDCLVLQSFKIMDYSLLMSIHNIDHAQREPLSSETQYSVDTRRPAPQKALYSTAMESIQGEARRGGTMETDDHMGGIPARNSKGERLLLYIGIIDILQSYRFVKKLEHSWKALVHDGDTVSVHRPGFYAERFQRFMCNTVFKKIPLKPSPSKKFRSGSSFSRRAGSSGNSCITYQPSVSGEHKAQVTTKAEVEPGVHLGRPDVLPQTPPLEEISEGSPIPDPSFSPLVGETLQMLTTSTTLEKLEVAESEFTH

Chain of kinases (KINOMEscan panel) (Homo sapiens, UniProt P57059) (P57059 whole entry): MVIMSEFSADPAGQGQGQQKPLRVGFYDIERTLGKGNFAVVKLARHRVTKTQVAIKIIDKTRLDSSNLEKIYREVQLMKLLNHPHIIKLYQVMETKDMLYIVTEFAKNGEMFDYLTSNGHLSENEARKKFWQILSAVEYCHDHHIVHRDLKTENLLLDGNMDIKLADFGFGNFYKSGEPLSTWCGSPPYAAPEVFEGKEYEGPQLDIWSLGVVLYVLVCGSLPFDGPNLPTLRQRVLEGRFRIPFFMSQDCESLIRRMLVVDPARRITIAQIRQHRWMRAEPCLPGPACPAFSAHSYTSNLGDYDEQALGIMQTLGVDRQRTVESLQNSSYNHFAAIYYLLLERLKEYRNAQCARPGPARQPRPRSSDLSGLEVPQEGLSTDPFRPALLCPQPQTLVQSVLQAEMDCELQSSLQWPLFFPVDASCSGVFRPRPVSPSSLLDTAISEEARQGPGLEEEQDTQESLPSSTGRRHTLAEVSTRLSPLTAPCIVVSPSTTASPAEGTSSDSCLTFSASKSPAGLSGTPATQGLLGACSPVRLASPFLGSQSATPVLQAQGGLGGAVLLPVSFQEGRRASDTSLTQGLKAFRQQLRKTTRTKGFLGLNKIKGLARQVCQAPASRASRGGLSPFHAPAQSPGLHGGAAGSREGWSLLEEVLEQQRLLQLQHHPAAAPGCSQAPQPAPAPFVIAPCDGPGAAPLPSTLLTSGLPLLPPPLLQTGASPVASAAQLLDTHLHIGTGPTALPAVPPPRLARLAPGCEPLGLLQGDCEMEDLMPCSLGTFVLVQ
Chain of kinases (KINOMEscan panel) (Homo sapiens, UniProt Q00526) (Q00526 whole entry): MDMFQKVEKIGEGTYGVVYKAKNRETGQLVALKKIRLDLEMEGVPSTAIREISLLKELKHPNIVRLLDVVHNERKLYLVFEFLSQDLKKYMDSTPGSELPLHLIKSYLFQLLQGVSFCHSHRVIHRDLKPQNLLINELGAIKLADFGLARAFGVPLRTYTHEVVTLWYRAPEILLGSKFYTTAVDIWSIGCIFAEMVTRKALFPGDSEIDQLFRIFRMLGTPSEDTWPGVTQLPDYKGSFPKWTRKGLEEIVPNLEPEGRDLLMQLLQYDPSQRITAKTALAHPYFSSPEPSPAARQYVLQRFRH
Chain of kinases (KINOMEscan panel) (Homo sapiens, UniProt P06213) (P06213 28-1382): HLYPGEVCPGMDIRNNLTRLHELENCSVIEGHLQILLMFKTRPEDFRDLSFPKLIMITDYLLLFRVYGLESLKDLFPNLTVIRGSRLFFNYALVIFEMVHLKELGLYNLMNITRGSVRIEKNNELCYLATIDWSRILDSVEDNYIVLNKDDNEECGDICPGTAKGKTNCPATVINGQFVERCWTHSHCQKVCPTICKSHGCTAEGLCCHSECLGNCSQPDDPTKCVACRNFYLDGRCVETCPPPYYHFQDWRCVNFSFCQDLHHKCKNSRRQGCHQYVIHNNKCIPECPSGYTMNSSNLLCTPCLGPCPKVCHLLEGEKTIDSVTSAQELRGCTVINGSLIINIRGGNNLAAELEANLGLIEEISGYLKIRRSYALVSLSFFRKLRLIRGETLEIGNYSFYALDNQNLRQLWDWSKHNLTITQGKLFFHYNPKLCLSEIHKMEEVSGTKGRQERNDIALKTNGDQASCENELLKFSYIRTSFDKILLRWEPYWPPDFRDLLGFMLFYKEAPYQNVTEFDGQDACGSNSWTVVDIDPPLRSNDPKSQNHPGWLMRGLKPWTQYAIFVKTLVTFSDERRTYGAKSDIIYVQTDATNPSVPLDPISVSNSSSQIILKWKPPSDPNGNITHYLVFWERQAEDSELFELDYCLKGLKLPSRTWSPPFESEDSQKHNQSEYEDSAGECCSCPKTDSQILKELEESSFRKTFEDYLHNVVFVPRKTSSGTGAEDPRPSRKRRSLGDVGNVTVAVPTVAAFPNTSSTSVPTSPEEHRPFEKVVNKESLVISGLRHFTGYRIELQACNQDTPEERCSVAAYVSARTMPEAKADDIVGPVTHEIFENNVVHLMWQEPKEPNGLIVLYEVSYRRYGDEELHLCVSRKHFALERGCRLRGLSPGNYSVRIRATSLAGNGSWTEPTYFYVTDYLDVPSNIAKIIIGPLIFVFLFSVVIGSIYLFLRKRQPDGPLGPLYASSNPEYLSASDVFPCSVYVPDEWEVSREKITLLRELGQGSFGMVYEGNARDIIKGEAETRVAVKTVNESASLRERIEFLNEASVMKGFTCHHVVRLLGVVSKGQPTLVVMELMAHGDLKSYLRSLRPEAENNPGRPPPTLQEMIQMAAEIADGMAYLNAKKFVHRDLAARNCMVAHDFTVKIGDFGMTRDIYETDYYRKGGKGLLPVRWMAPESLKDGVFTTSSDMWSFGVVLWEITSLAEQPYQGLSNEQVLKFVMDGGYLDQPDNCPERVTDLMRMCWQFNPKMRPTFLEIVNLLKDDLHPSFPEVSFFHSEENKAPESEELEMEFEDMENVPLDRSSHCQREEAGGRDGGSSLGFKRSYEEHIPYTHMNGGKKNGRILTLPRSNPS
Chain of kinases (KINOMEscan panel) (Homo sapiens, UniProt P12931) (P12931 whole entry): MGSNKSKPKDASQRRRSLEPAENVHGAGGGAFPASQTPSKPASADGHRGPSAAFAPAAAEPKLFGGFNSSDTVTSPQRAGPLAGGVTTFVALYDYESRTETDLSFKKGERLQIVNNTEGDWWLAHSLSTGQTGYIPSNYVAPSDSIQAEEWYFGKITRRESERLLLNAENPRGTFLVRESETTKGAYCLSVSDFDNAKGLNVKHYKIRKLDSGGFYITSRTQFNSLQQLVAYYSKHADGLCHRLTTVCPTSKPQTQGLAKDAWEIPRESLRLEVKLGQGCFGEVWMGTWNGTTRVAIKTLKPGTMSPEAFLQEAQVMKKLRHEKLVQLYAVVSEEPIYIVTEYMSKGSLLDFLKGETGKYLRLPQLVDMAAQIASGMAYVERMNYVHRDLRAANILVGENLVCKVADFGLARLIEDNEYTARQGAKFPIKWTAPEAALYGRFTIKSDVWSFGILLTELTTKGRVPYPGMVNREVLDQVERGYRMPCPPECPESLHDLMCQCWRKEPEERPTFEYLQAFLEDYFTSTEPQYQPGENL
Chain of kinases (KINOMEscan panel) (Homo sapiens, UniProt P07948) (P07948 whole entry): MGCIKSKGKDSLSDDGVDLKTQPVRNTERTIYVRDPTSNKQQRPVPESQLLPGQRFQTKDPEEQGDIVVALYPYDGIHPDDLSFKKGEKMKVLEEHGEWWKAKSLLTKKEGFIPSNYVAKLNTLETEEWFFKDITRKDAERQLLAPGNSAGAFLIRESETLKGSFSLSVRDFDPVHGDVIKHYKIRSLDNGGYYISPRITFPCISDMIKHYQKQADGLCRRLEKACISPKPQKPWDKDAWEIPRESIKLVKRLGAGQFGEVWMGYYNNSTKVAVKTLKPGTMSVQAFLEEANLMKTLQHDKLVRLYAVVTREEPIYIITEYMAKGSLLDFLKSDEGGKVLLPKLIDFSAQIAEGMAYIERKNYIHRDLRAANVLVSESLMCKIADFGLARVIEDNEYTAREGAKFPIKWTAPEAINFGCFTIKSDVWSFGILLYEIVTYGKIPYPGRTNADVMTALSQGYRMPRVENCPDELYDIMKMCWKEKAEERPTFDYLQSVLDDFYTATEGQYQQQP

## Cc1cccc(-c2nc(Nc3ccncc3)c3ccccc3n2)n1 [NK215]
[1]
  KINOMEscan LYN: 0
[2]
  KINOMEscan SRC: 20
[3]
  KINOMEscan CDK3: 20
[4]
  KINOMEscan MAP4K2: 0
[5]
  KINOMEscan HIPK4: 19
[6]
  KINOMEscan INSR: 7
[7]
  KINOMEscan RIPK1: 4
[8]
  KINOMEscan SIK1: 4
[9]
  KINOMEscan PIP5K1A: 10
